# Measured values from the NIST ThermoML archive (doi:10.1021/je9008156).
# Numbers after ± are expanded uncertainties.
# Settings: Crystal; visual observation
smiles,measurement,value
Nc1c(I)c(C(=O)NCC(O)CO)c(I)c(C(=O)NCC(O)CO)c1I (stereo unspecified),Normal melting temperature,193.00 ± 0.5 °C
